Source: ChEMBL document CHEMBL1125572, “Adenosine receptors: pharmacology, structure-activity relationships, and therapeutic potential” (J Med Chem, 1992)

What was measured:
[1] = target: T1, Adenosine receptor A1 (Rattus norvegicus, UniProt P25099); assay: Binding affinity for Adenosine A1 receptor using [3H]- CHA or [3H]- PIA
T1 sequence (P25099 whole entry): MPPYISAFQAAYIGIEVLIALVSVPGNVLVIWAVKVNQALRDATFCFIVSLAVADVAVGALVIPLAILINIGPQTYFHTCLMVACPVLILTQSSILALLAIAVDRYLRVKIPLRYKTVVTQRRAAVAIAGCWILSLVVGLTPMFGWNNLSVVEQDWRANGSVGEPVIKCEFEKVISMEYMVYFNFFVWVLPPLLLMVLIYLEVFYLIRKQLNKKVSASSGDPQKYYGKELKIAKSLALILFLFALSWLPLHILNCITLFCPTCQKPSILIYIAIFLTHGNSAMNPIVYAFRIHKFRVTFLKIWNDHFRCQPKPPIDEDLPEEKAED

[2] = target: Adenosine A2 receptor (Rattus norvegicus) (UniProt P29276+P30543); assay: Binding affinity for Adenosine A2 receptor using [3H]- NECA; assay type: protein assay
[3] = test system: Adenosine receptors; A1 & A2 (Rattus norvegicus); assay: Ratio of adenosine A2 to A1 receptor binding
[4] = target: T1, Adenosine receptor A1
[5] = target: T2, Adenosine receptor A1 (Bos taurus, UniProt P28190); assay: Binding affinity for adenosine A1 receptor using [3H]- CHA or [3H]- PIA in bovine brain cortical membranes; assay type: cell membranes
T2 sequence (P28190 whole entry): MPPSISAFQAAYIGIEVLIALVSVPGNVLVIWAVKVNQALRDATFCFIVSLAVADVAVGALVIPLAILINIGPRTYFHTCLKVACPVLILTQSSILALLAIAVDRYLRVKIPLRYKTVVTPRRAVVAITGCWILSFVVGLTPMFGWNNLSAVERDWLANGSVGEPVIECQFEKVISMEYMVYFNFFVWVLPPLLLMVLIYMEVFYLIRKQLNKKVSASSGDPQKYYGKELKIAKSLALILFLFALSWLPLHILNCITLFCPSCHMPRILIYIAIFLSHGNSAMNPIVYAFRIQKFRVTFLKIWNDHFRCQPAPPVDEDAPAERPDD

[6] = target: T3, Adenosine A2 receptor (Homo sapiens, UniProt P29275+P29274); assay: Binding affinity for adenosine A2 receptor using [3H]- NECA antagonism of adenylate cyclase activation in human platelets
[7] = target: Adenosine A2 receptor (Rattus norvegicus, UniProt P29276+P30543); assay: Binding affinity for adenosine A2 receptor using [3H]- NECA; assay type: protein assay
[8] = target: T2, Adenosine receptor A1; assay: Binding affinity for adenosine A1 receptor using [3H]- CHA or [3H]- PIA in bovine brain
[9] = target: T3, Adenosine A2 receptor; assay: Binding affinity for adenosine A2 receptor using [3H]- NECA in bovine brain; settings: Bos taurus; target entry is the homologue from another species
[10] = target: T3, Adenosine A2 receptor; assay: Binding affinity for adenosine A2 receptor using [125I]PAPA-APEC in bovine striatum; assay type: tissue-based; settings: Bos taurus, target entry is the homologue from another species
[11] = target: T1, Adenosine receptor A1; assay: Binding affinity for adenosine A1 receptor using [3H]- CHA or [3H]- PIA antagonism of adenylate cyclase inhibition in rat adipocytes; assay type: cell-based

Question: Which results are given for OCCCNc1ncnc2c1ncn2C1O[C@H](CO)[C@@H](O)[C@H]1O (stereo partly specified)?
Answer: Ki [1]: 7 nM; Ki [2]: 4920 nM; Ratio [3]: 700

Question: Which Ki [4] does the source give for CCCn1c(=O)c2[nH]c(C3CCC(=O)C3)nc2n(CCC)c1=O (stereo unspecified) here?
Answer: The Ki was 10.5 nM.

Question: With CCCCCCCCCCCCCCCCCC(=O)NCCNC(=O)Cc1ccc(NC(=O)Cc2ccc(Nc3ncnc4c3ncn4C3O[C@H](CO)[C@@H](O)[C@H]3O)cc2)cc1 (stereo partly specified) as the molecule, how does the Ki [1] read?
Answer: Its Ki is 0.22 nM.

Question: And the Ki [2]?
Answer: Its Ki is 8400 nM.

Question: And the Ratio [3]?
Answer: Its Ratio is 38000.

Question: With CCCCC#Cc1nc(N)c2ncn([C@@H]3O[C@H](CO)[C@@H](O)[C@H]3O)c2n1 as the molecule, how does the Ki [4] read?
Answer: Its Ki is 147 nM.

Question: For CCCn1c(=O)c2nc(-c3ccc(OCC(=O)NCCNC(=O)CCc4ccc(N)c(I)c4)cc3)[nH]c2n(CCC)c1=O, which Ki [5] is on record?
Answer: The Ki was 0.1 nM.

Question: Cc1ccc(CCOc2nc(N)c3ncn(C4O[C@@H](CO)[C@H](O)[C@@H]4O)c3n2)cc1 (stereo partly specified) was tested. Which Ki [4] did it give?
Answer: Its Ki is 48 nM.

Question: How did the Ki [4] turn out when Nc1nc(-c2ccccc2)nc2c1cnn2-c1ccccc1 was run?
Answer: Its Ki is 23 nM.

Question: For Cn1c(=O)c2c(nc(C3CCCCC3)n2C)n(C)c1=O, which Ki [6] is on record?
Answer: The Ki was 0.19 nM.

Question: Which Ki [1] does the source give for OC[C@H]1O[C@@H](n2cnc3c(NCCc4ccccc4)ncnc32)[C@H](O)[C@@H]1O here?
Answer: Its Ki is 4.1 nM.

Question: Which Ki [4] does the source give for CCCn1c(=O)c2nc(C3CCCC3)[nH]c2n(CCc2ccc(N)c(I)c2)c1=O here?
Answer: Its Ki is 0.23 nM.

Question: OC[C@H]1O[C@@H](n2cnc3c(Nc4ccccc4)ncnc32)[C@H](O)[C@@H]1O was tested. Which Ki [2] did it give?
Answer: Its Ki is 663 nM.

Question: Which Ki [4] does the source give for Oc1cccc(C2=CSC3=Nc4ccccc4CN23)c1 here?
Answer: Its Ki is 3100 nM.

Question: For Nc1nc(OCCC2CCCCC2)nc2c1ncn2C1O[C@@H](CO)[C@H](O)[C@@H]1O (stereo partly specified), which Ki [4] is on record?
Answer: Its Ki is 1500 nM.

Question: O=C(Cc1ccc(NC(=O)Cc2ccc(Nc3ncnc4c3ncn4C3O[C@H](CO)[C@@H](O)[C@H]3O)cc2)cc1)NCC/N=C(/S)Nc1ccc2c(c1)C(=O)OC21c2ccc(O)cc2Oc2cc(O)ccc21 (stereo partly specified) was tested. Which Ki [1] did it give?
Answer: Its Ki is 7.1 nM.

Question: For C#CCn1c(=O)c2c(ncn2C)n(C)c1=O, which Ki [4] is on record?
Answer: The Ki was 22000 nM.

Question: Which Ki [4] does the source give for CCNC(=O)[C@H]1O[C@@H](n2cnc3c(N)nc(NCCc4ccc(CCC(=O)NCCN)cc4)nc32)[C@H](O)[C@@H]1O here?
Answer: The Ki was 240 nM.

Question: And the Ki [7]?
Answer: Its Ki is 5.7 nM.

Question: How did the Ki [4] turn out when FC(F)(F)c1nnc2c(NC3CCCC3)nc3ccc(Cl)cc3n12 was run?
Answer: Its Ki is 28 nM.

Question: How did the Ki [4] turn out when Nc1nc2ccc(Cl)cc2n2c(-c3ccccc3)nnc12 was run?
Answer: The Ki was 270 nM.

Question: How did the Ki [1] turn out when C[C@H](Cc1ccc(O)c(I)c1)Nc1ncnc2c1ncn2[C@@H]1O[C@H](CO)[C@@H](O)[C@H]1O was run?
Answer: Its Ki is 0.94 nM.

Question: Which results are given for Cn1cnc2c(NC3CC4CCC3C4)ncnc21 (stereo unspecified)?
Answer: Ki [8]: 10 nM; Ki [9]: 6100 nM

Question: Which Ki [4] does the source give for Cc1c(C)n([C@H](C)Cc2ccccc2)c2nc(-c3ccccc3)nc(N)c12 here?
Answer: The Ki was 4.7 nM.

Question: With Nc1nc(NCCC2C=CCCC2)nc2c1ncn2C1O[C@H](CO)[C@@H](O)[C@H]1O (stereo partly specified) as the molecule, how does the Ki [4] read?
Answer: The Ki was 2700 nM.

Question: With Nc1ccc(CCNc2ncnc3c2ncn3C2O[C@H](CO)[C@@H](O)[C@H]2O)cc1I (stereo partly specified) as the molecule, how does the Ki [1] read?
Answer: The Ki was 2 nM.

Question: With CCNC(=O)[C@H]1OC(n2cnc3c(N)nc(NCCc4ccc(CCC(=O)NCCNC(=O)Cc5ccc(N)c(I)c5)cc4)nc32)[C@H](O)[C@@H]1O (stereo partly specified) as the molecule, how does the Ki [7] read?
Answer: The Ki was 1 nM.

Question: For CCCCCCC#Cc1nc(N)c2ncn([C@@H]3O[C@H](CO)[C@@H](O)[C@H]3O)c2n1, which Ki [4] is on record?
Answer: Its Ki is 211 nM.

Question: With CCNC(=O)[C@H]1OC(n2cnc3c(N)nc(NCCc4ccc(CCC(=O)NCC/N=C(\S)Nc5ccc(N=C=S)cc5)cc4)nc32)[C@H](O)[C@@H]1O (stereo partly specified) as the molecule, how does the Ki [4] read?
Answer: The Ki was 280 nM.

Question: What about the Ki [10] of the same molecule?
Answer: The Ki was 7.1 nM.

Question: Which Ki [11] does the source give for CCCn1c(=O)c2nc([C@H]3CC[C@H](CNC(C)=O)CC3)[nH]c2n(CCC)c1=O here?
Answer: The Ki was 8 nM.

Question: What about the Ki [6] of the same molecule?
Answer: The Ki was 20 nM.

Question: Which Ki [1] does the source give for Nc1ccc(CNc2ncnc3c2ncn3C2O[C@H](CO)[C@@H](O)[C@H]2O)cc1I (stereo partly specified) here?
Answer: Its Ki is 0.7 nM.
